Measured values: patent publication US20090060861A1, “Stabilized Polypeptide Formulations” (NOVO Nordisk A/S, priority 2005, published 2009)
Where two headings read alike, the source gives them in different places.

What was measured:
[1] = target: T1, insulin aspart (Asp^B28 human insulin) (Homo sapiens, UniProt P01308, P52D); details: pH 7.4
Experimental: Compositions comprising the buffer components covered by the present invention were prepared according to the above-mentioned and a reference composition containing 7 mM sodium phosphate as buffer component was prepared in parallel.

human insulin = human insulin (Homo sapiens, UniProt P01308)
[2] = target: T1, insulin aspart (Asp^B28 human insulin); assay: Chemical stability of the polypeptide, degradation products formed during storage; details: insulin aspart compositions, 1-100 mM buffer; 3 months storage at 5° C. or 37° C.; data not shown
[3] = target: T1, insulin aspart (Asp^B28 human insulin)
[4] = insulin aspart 600 nmol/mL, 1-100 mM buffer, 37° C., shake 1200 rpm, n=12
[5] = human insulin, 6.7 mM buffer, n=12

Chain of human insulin (P01308 25-54 limits assumed): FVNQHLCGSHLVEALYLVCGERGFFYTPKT
Chain of human insulin (P01308 90-110 limits assumed): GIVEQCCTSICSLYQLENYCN
T1 sequence (P01308 25-54 P52D): as the sequence (P01308 25-54 limits assumed) above, with P28D counted along it

Row | Structure (SMILES) | polypeptide stability (physical stability, ThT lag-time) compared to compositions comprising phosphate buffer (7 mM) [1, 4] | polypeptide stability (physical stability, ThT lag-time) compared to compositions comprising phosphate buffer (human insulin; [5]) | impact on chemical stability of the polypeptide (amount of degradation products formed) [2] | impact on chemical stability of the polypeptide (amount of degradation products formed) [3] | polypeptide stability (physical stability, ThT lag-time) compared to compositions comprising phosphate buffer (7 mM) [1] | polypeptide stability (physical stability, ThT lag-time) compared to compositions comprising phosphate buffer (human insulin)
1 | CC(N)(CO)CO [AMPD, 2-amino-2-methyl-1,3-propanediol] | increased | increased | No significant impact | – | – | –
2 | CC[N+](CC)(CC)CC.[Cl-] [T.E.A. chloride, tetraethylammonium chloride] | increased | increased | – | No significant impact | – | –
3 | CCC(CC)(C(=O)O)C(=O)O [diethylmalonic acid, diethylpropanedioic acid] | increased | increased | No significant impact | – | – | –
4 | Cl.NCC(N)=O [glycinamid hydrochloride] | – | – | No significant impact | – | increased | increased
5 | O=C(O)c1ccc(C(=O)O)c(C(=O)O)c1 [trimellitic acid, 1,2,4-benzenetricarboxylic acid] | increased | increased | No significant impact | – | – | –
